Assay results taken from the NIST ThermoML archive (doi:10.1016/j.jct.2012.02.035).
± gives the expanded uncertainty stated by the source.

Assays:
[1] = Solid-liquid equilibrium temperature; conditions: 101 kPa; Crystal 2; DTA
[2] = Molar enthalpy of transition or fusion; conditions: DSC
[3] = Crystal; DTA

| Structure (SMILES) | Solid-liquid equilibrium temperature [1] | Molar enthalpy of transition or fusion ([2]; Crystal 2) | Normal melting temperature [3] | Molar enthalpy of transition or fusion ([2]; Crystal) |
| --- | --- | --- | --- | --- |
| CC[N+](CC)(CC)CC.O=[N+]([O-])[O-] [tetraethylammonium nitrate] | 371.5 ± 0.3 K | 2.58 ± 0.0956 kcal/mol | – | – |
| CCCC[N+](CCCC)(CCCC)CCCC.O=[N+]([O-])[O-] [tetrabutylammonium nitrate] | 361.4 ± 0.2 K | 0.0478 ± 0.0239 kcal/mol | 118.0 ± 1.1 °C | 3.42 ± 0.12 kcal/mol |
